In patent US7074789B2, “Kinase inhibitors” (Amgen Inc., priority 1999, dated 2006):

What was measured:
Format in all cases: biochemical
Lck = target: T1, Lck (Homo sapiens, UniProt P06239); test: Kinase inhibition assay (33P transfer), Lck; settings: Table 3; read-out: Lck-1
T1 construct: Kinases are expressed as either kinase domains or full length constructs; made in house
Summary of the method: (§1)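 Steps: express kinase as GST or polyHistidine fusion in E. coli or High Five cells; optionally co-express or mix with regulatory polypeptides; incubate with 33P-ATP and plate-attached poly(Glu,Tyr) 4:1 or poly(Arg,Ser) 3:1; wash with 0.5% phosphoric acid; count by liquid scintillation.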

Fyn = target: T2, Fyn (Homo sapiens, UniProt P06241); test: Kinase inhibition assay (33P transfer), Fyn; settings: read-out: Fyn-1
T2 construct: Kinases are expressed as either kinase domains or full length constructs; made in house
Summary of the method: (§2)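 Read-out: scintillation counts of 33P moved from ATP onto synthetic peptide polymer coated on the well surface, after washing with 0.5% phosphoric acid. Enzymes were tagged (GST or polyHistidine) and came from bacterial or insect-cell expression. IC50 marks 50% loss of incorporated label.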

IGFR-1 = target: T3, IGFR-1 (Homo sapiens, UniProt P08069); test: Kinase inhibition assay (33P transfer), IGFR-1; settings: Table 2, kinase inhibition class
T3 construct: Kinases are expressed as either kinase domains or full length constructs; made in house
T3 sequence (P08069 31-1367): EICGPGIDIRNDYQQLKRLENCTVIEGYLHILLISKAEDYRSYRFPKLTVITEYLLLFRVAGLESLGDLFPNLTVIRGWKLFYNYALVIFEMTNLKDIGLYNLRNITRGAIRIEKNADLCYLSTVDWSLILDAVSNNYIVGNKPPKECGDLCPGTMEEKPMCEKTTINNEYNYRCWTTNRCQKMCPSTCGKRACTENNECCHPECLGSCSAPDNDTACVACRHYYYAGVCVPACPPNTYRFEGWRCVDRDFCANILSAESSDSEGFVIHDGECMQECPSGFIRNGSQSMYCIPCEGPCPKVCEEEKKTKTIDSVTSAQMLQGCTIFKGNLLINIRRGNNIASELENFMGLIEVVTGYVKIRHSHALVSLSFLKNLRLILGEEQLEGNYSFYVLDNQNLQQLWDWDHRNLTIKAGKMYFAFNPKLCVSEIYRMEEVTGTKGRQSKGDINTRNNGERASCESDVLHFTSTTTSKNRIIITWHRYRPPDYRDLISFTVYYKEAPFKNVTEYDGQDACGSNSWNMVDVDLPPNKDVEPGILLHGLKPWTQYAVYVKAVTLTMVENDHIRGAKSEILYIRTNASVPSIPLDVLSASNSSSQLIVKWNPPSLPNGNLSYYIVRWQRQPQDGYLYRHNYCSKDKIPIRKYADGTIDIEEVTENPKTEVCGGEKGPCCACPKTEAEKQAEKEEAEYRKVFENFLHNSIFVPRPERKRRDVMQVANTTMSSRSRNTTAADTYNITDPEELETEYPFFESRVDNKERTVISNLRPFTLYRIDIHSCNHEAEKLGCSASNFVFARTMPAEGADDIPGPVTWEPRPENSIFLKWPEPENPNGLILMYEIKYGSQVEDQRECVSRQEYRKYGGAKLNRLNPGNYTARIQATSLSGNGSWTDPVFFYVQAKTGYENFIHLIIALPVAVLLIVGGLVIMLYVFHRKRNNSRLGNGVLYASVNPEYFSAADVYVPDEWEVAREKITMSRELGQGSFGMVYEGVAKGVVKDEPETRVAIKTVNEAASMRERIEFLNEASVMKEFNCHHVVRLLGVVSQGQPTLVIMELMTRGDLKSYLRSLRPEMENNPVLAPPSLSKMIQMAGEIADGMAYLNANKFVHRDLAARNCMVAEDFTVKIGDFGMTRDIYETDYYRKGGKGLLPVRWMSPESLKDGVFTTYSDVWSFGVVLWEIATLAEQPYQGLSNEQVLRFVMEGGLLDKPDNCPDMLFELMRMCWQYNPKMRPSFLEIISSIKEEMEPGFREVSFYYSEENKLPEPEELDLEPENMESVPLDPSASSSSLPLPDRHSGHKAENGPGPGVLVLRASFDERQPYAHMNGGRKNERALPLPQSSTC

Src = target: T4, Src (Homo sapiens, UniProt P12931); test: Kinase inhibition assay (33P transfer), Src; settings: Table 6, Src-1 kinase inhibition class
T4 construct: Kinases are expressed as either kinase domains or full length constructs; made in house
T4 sequence (P12931 whole entry, species assumed, the tested form may be a part): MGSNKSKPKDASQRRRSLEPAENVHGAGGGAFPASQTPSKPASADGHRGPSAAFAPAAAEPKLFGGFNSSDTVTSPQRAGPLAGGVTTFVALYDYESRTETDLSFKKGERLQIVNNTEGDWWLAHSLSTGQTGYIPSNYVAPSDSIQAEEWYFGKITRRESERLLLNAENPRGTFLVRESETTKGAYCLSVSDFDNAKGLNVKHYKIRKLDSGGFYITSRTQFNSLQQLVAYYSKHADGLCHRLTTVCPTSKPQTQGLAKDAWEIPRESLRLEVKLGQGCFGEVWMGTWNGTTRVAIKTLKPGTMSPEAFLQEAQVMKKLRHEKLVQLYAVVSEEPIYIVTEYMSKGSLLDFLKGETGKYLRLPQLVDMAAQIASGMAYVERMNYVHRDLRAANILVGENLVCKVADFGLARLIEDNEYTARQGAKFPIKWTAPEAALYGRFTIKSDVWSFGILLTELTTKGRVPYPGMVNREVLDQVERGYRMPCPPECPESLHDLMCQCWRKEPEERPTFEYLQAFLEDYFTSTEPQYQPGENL
Summary of the method: as §2

ErbB4 = target: T5, ErbB4 (Homo sapiens, UniProt Q15303); test: Kinase inhibition assay (33P transfer), ErbB4; settings: read-out: ErbB4-1
T5 construct: Kinases are expressed as either kinase domains or full length constructs; made in house
T5 sequence (Q15303 26-1308, species assumed): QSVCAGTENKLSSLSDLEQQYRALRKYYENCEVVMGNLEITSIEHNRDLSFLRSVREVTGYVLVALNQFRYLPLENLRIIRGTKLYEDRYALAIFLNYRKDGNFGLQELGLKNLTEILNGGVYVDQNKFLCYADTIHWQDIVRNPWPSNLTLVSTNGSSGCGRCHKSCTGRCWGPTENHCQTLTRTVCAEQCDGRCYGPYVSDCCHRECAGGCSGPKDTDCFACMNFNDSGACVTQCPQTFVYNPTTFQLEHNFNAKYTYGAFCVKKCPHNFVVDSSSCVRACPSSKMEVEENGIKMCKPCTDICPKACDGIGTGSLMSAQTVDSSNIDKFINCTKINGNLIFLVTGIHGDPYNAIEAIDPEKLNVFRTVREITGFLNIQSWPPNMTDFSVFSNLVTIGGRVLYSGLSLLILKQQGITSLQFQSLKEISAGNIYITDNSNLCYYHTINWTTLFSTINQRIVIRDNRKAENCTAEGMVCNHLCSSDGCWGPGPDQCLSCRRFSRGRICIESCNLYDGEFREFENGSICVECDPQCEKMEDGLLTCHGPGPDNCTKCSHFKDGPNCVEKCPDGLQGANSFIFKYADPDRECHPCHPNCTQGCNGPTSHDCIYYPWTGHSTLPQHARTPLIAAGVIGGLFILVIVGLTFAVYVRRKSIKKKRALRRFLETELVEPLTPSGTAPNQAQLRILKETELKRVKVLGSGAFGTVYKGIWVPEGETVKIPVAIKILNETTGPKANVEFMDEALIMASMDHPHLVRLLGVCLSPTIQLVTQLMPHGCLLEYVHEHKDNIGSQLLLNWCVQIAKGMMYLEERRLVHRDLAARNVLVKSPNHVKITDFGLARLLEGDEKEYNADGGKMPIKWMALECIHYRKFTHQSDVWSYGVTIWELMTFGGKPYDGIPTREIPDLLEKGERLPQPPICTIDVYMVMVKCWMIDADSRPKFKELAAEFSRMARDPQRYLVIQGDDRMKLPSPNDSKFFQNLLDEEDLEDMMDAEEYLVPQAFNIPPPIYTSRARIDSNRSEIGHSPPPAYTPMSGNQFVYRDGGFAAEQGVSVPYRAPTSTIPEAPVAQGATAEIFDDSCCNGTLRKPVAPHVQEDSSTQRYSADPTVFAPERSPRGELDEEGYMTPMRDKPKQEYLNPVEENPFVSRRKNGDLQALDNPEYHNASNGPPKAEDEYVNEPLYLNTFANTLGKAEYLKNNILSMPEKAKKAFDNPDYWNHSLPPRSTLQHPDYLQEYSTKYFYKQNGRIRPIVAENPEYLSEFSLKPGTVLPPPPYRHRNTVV

Itk = target: T6, Itk (Homo sapiens, UniProt Q08881); test: Kinase inhibition assay (33P transfer), Itk; settings: Table 3; read-out: Itk-1
T6 construct: Kinases are expressed as either kinase domains or full length constructs; made in house
T6 sequence (Q08881 1-620): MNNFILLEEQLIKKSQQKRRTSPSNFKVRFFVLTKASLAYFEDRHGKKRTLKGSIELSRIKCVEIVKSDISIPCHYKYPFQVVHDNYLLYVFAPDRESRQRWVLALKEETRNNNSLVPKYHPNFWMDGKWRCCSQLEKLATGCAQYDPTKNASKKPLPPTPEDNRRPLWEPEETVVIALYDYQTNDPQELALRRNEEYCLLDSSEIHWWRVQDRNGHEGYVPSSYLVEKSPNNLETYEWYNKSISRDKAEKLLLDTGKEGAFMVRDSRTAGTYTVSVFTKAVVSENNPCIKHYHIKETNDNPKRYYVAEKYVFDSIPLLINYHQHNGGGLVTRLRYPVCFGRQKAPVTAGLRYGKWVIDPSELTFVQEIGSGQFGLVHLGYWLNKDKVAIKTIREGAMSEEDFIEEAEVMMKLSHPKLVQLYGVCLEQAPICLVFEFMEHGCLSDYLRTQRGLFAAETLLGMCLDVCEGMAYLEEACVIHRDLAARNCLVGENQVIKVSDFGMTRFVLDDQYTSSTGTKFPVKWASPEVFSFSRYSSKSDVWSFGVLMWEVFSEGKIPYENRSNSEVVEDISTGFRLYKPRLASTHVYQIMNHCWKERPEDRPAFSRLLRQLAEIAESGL
Summary of the method: as §2

PDGFRB = target: T7, PDGFRB (Homo sapiens, UniProt P09619); test: Kinase inhibition assay (33P transfer), PDGFRB; settings: read-out: PDGFRB-1
T7 construct: Kinases are expressed as either kinase domains or full length constructs; made in house
T7 sequence (P09619 33-1106, species assumed): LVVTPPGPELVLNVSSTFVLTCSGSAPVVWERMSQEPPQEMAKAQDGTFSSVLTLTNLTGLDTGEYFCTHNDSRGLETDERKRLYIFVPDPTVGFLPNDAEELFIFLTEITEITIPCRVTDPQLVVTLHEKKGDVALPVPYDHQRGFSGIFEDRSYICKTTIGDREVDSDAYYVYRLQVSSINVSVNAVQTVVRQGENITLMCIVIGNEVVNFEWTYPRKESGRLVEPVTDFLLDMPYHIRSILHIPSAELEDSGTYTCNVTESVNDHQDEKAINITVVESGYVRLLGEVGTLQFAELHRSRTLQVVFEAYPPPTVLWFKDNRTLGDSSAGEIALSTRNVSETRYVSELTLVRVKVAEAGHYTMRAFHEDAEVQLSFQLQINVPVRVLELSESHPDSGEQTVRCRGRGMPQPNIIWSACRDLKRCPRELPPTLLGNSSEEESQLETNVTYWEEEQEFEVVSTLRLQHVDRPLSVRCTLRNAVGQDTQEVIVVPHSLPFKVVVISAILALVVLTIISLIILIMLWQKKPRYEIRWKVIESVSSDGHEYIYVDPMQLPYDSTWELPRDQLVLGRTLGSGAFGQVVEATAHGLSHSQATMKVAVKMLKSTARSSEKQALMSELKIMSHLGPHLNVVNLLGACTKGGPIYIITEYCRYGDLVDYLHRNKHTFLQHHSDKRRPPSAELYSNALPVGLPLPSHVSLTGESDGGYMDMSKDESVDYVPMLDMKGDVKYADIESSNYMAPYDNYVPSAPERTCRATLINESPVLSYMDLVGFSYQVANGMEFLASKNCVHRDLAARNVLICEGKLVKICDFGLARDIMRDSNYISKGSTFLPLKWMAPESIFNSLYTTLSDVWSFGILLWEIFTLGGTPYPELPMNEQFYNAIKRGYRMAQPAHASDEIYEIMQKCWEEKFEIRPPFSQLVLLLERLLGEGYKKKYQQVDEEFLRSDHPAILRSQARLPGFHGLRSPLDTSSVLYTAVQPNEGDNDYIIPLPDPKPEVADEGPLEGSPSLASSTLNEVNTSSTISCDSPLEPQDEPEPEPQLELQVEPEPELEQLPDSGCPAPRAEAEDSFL

EGFR = target: T8, EGFR (Homo sapiens, UniProt P00533); test: Kinase inhibition assay (33P transfer), EGFR; settings: Table 2, kinase inhibition class; read-out: EGFR-1
T8 construct: Kinases are expressed as either kinase domains or full length constructs; made in house
Summary of the method: as §2

Flt-1 = target: T9, Flt-1 (Homo sapiens, UniProt P17948); test: Kinase inhibition assay (33P transfer), Flt-1
T9 construct: Kinases are expressed as either kinase domains or full length constructs; made in house
Summary of the method: as §2

AKT = target: T10, AKT (Homo sapiens, UniProt Q9Y243); test: Kinase inhibition assay (33P transfer), AKT; settings: Table 2, kinase inhibition class; read-out: AKT3-1
T10 construct: Kinases are expressed as either kinase domains or full length constructs; made in house
T10 sequence (Q9Y243 whole entry, the tested form may be a part): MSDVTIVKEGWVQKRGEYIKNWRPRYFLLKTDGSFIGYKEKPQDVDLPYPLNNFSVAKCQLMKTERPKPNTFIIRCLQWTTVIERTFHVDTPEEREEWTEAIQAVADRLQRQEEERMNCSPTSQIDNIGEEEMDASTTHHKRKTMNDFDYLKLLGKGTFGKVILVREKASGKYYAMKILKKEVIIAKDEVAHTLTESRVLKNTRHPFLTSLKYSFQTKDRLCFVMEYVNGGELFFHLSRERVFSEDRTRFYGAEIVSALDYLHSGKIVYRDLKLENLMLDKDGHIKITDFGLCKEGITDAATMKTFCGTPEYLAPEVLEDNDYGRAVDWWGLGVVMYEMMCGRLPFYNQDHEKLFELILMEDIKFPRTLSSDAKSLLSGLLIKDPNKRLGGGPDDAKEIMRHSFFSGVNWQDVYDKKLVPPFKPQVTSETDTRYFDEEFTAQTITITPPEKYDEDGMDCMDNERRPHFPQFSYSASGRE
Summary of the method: as §1

SMILES	IC50 (Lck)	IC50 (Fyn)	IC50 (IGFR-1)	IC50 (Src)	IC50 (ErbB4)	IC50 (Itk)	IC50 (PDGFRB)	IC50 (EGFR)	IC50 (Flt-1)	IC50 (AKT)
COc1cc(Nc2ncnc(N3CCc4cc([N+](=O)[O-])ccc43)n2)cc(OC)c1OC [Compound 187]	> 10.6 µM	> 10.6 µM	> 10.6 µM	> 10.6 µM	5.65 to 8.25 µM	> 10.6 µM	> 10.6 µM	> 10.6 µM	> 10.6 µM	> 10.6 µM
COc1ccc(Nc2ncnc(Nc3cccc(C)c3)n2)cc1OC [Compound 108]	10.4 to 13.3 µM	1.19 to 7.11 µM	7.11 to 10.4 µM	1.19 to 7.11 µM	10.4 to 13.3 µM	> 13.3 µM	1.19 to 7.11 µM	< 1.19 µM	> 13.3 µM	> 13.3 µM
COCCOc1ccc(Nc2ncnc(-n3c(N)nc4ccccc43)n2)cc1OC [Compound 287]	0.982 to 5.89 µM	> 11 µM	< 0.982 µM	> 11 µM	> 11 µM	5.89 to 8.59 µM	> 11 µM	8.59 to 11 µM	> 11 µM	> 11 µM
COc1ccc(Nc2ccc(Nc3ncnc(Nc4cc(OC)c(OC)c(OC)c4)n3)cc2)cc1 [Compound 922]	0.843 to 5.06 µM	0.843 to 5.06 µM	0.843 to 5.06 µM	0.843 to 5.06 µM	< 0.843 µM	> 9.48 µM	0.843 to 5.06 µM	0.843 to 5.06 µM	5.06 to 7.38 µM	0.843 to 5.06 µM
COc1ccc(Nc2ncnc(Nc3cc(-c4ccco4)n[nH]3)n2)cc1OC [Compound 337]	1.05 to 6.33 µM	1.05 to 6.33 µM	< 1.05 µM	1.05 to 6.33 µM	1.05 to 6.33 µM	1.05 to 6.33 µM	1.05 to 6.33 µM	1.05 to 6.33 µM	< 1.05 µM	> 11.9 µM
COc1cc(Nc2ncnc(Nc3ccc(Br)c(Cl)c3)n2)cc(OC)c1OC [Compound 936]	0.857 to 5.14 µM	< 0.857 µM	< 0.857 µM	< 0.857 µM	0.857 to 5.14 µM	5.14 to 7.5 µM	< 0.857 µM	< 0.857 µM	0.857 to 5.14 µM	> 9.64 µM
COc1cc(Nc2ncnc(-n3ccc4ccc(Cl)cc43)n2)cc(OC)c1OC [Compound 237]	0.971 to 5.83 µM	> 10.9 µM	< 0.971 µM	> 10.9 µM	> 10.9 µM	> 10.9 µM	> 10.9 µM	8.5 to 10.9 µM	8.5 to 10.9 µM	> 10.9 µM
COc1cc(Nc2ncnc(Nc3ccc(Cl)cc3F)n2)cc(OC)c1OC [Compound 306]	0.986 to 5.91 µM	0.986 to 5.91 µM	< 0.986 µM	0.986 to 5.91 µM	> 11.1 µM	> 11.1 µM	< 0.986 µM	< 0.986 µM	0.986 to 5.91 µM	> 11.1 µM
COCCOc1ccc(Nc2ncnc(-n3c(N)nc4ccccc43)n2)cc1OCCOC [Compound 302]	> 9.97 µM	> 9.97 µM	< 0.886 µM	> 9.97 µM	> 9.97 µM	> 9.97 µM	> 9.97 µM	> 9.97 µM	> 9.97 µM	> 9.97 µM
COc1ccc(Nc2ncnc(Nc3ccc4[nH]ccc4c3)n2)cc1OC [Compound 115]	1.1 to 6.62 µM	6.62 to 9.66 µM	1.1 to 6.62 µM	6.62 to 9.66 µM	> 12.4 µM	9.66 to 12.4 µM	> 12.4 µM	< 1.1 µM	1.1 to 6.62 µM	1.1 to 6.62 µM
COCCOc1ccc(Nc2ncnc(Nc3ccc(C)c(O)c3)n2)cc1OC [Compound 123]	1.01 to 6.04 µM	1.01 to 6.04 µM	1.01 to 6.04 µM	< 1.01 µM	1.01 to 6.04 µM	6.04 to 8.81 µM	< 1.01 µM	< 1.01 µM	< 1.01 µM	> 11.3 µM
COc1cc(Nc2ncnc(-n3ccc4c(OC)cccc43)n2)cc(OC)c1OC [Compound 238]	> 11 µM	> 11 µM	> 11 µM	> 11 µM	> 11 µM	> 11 µM	0.982 to 5.89 µM	> 11 µM	> 11 µM	> 11 µM
C#Cc1cccc(Nc2ncnc(Nc3ccc(OC)c(OC)c3)n2)c1 [Compound 116]	10.1 to 13 µM	> 13 µM	1.15 to 6.91 µM	> 13 µM	> 13 µM	> 13 µM	> 13 µM	< 1.15 µM	> 13 µM	> 13 µM
CCOc1ccc(Nc2ncnc(Nc3ccc(C)c(O)c3)n2)cc1OCC [Compound 121]	1.05 to 6.29 µM	< 1.05 µM	> 11.8 µM	< 1.05 µM	1.05 to 6.29 µM	9.18 to 11.8 µM	< 1.05 µM	1.05 to 6.29 µM	< 1.05 µM	> 11.8 µM
COc1cc(Nc2ncnc(Nc3nnc(-c4ccccc4)[nH]3)n2)cc(OC)c1OC [Compound 311]	> 10.7 µM	> 10.7 µM	> 10.7 µM	> 10.7 µM	> 10.7 µM	> 10.7 µM	> 10.7 µM	> 10.7 µM	> 10.7 µM	> 10.7 µM
COc1cc(Nc2ncnc(Nc3ccc(C)c(N)c3)n2)cc(OC)c1OC [Compound 935]	1.05 to 6.28 µM	< 1.05 µM	1.05 to 6.28 µM	< 1.05 µM	1.05 to 6.28 µM	6.28 to 9.15 µM	< 1.05 µM	< 1.05 µM	1.05 to 6.28 µM	> 11.8 µM
CCOc1ccc(Nc2ncnc(Nc3ccc(OCc4ccccc4)cc3)n2)cc1OCC [Compound 170]	> 9.84 µM	> 9.84 µM	> 9.84 µM	> 9.84 µM	7.65 to 9.84 µM	> 9.84 µM	> 9.84 µM	0.874 to 5.25 µM	> 9.84 µM	0.874 to 5.25 µM
NC(=O)c1cccc(Nc2ncnc(Nc3cc(-c4ccco4)n[nH]3)n2)c1 [Compound 342]	1.1 to 6.62 µM	1.1 to 6.62 µM	1.1 to 6.62 µM	> 12.4 µM	1.1 to 6.62 µM	1.1 to 6.62 µM	1.1 to 6.62 µM	< 1.1 µM	< 1.1 µM	> 12.4 µM
COc1ccc2c(c1)c(CCNC(C)=O)cn2-c1ncnc(Nc2cc(OC)c(OC)c(OC)c2)n1 [Compound 339]	> 9.14 µM	> 9.14 µM	> 9.14 µM	> 9.14 µM	> 9.14 µM	> 9.14 µM	< 0.812 µM	> 9.14 µM	> 9.14 µM	> 9.14 µM
COc1cc(Nc2ncnc(N(c3ccccc3)c3nc4ccccc4[nH]3)n2)cc(OC)c1OC [Compound 335]	0.852 to 5.11 µM	> 9.58 µM	> 9.58 µM	5.11 to 7.45 µM	> 9.58 µM	> 9.58 µM	7.45 to 9.58 µM	< 0.852 µM	0.852 to 5.11 µM	> 9.58 µM
COC(=O)c1sccc1Nc1ncnc(Nc2cc(OC)c(OC)c(OC)c2)n1 [Compound 315]	8.38 to 10.8 µM	> 10.8 µM	> 10.8 µM	> 10.8 µM	0.958 to 5.75 µM	> 10.8 µM	0.958 to 5.75 µM	> 10.8 µM	> 10.8 µM	> 10.8 µM
COc1ccc2c(ccn2-c2ncnc(Nc3cc(OC)c(OC)c(OC)c3)n2)c1 [Compound 196]	> 11 µM	> 11 µM	0.982 to 5.89 µM	> 11 µM	> 11 µM	> 11 µM	< 0.982 µM	8.59 to 11 µM	0.982 to 5.89 µM	> 11 µM
COc1cc2ccn(-c3ncnc(Nc4cc(OC)c(OC)c(OC)c4)n3)c2cc1OC [Compound 239]	> 10.3 µM	> 10.3 µM	> 10.3 µM	> 10.3 µM	> 10.3 µM	> 10.3 µM	> 10.3 µM	8 to 10.3 µM	> 10.3 µM	> 10.3 µM
